Measured values published in patent US8252832B2, “Kinesin inhibitors as cancer therapeutics” (Novartis AG, priority 2007, dated 2012).
Where two headings read alike, the source gives them in different places.

System: panel of cell lines derived from hematological malignancies
Assay: Cell survival assay, CellTiter-Glo readout after 48 hours, hematological panel
Format: cell-based
Parameters: key to Differential: panel average log(GI50) minus cell line log(GI50); positive = more sensitive
Experimental: Compound IIa was tested against a panel of cell lines derived from hematological malignancies in a cell survival assay using CellTiter-Glo® as a readout after 48 hours in the presence of compound. Table 18 lists the type of hematological malignancy, the name of the sample, its GI50 (concentration needed to achieve 50% growth inhibition) value in the assay, the logarithm of the GI50 (log(GI50), and the relative sensitivity of each sample (Differential). The differential is calculated by subtracting the log(GI50) for each cell line from the average log(GI50) across the entire panel (0.236 in this case); a positive value indicates a sample that is more sensitive than average, whereas a negative value indicates a sample that is less sensitive than average.

SMILES: CC(C)(C)[C@H](c1nc(-c2cc(F)ccc2F)cn1Cc1ccccc1)N(CC[C@H](N)CF)C(=O)CO [Compound IIa]
- Differential (697 (ALL)): 0.613
- GI50 (48 h, 697 (ALL), read-out: GI50): 0.11 nM
- GI50 (48 h, 697 (ALL), read-out: Log(GI50) (converted)): 0.105 nM
- GI50 (48 h, AML-193 (AML), read-out: GI50): 0.11 nM
- GI50 (48 h, AML-193 (AML), read-out: Log(GI50) (converted)): 0.11 nM
- GI50 (48 h, DEL (NHL), read-out: GI50): 0.28 nM
- GI50 (48 h, DEL (NHL), read-out: Log(GI50) (converted)): 0.283 nM
- GI50 (48 h, H929-Luc (MM), read-out: GI50): 1.69 nM
- GI50 (48 h, H929-Luc (MM), read-out: Log(GI50) (converted)): 1.69 nM
- GI50 (48 h, HEL92 (AML), read-out: GI50): 0.49 nM
- GI50 (48 h, HEL92 (AML), read-out: Log(GI50) (converted)): 0.49 nM
- GI50 (48 h, HH (NHL), read-out: GI50): 0.22 nM
- GI50 (48 h, HH (NHL), read-out: Log(GI50) (converted)): 0.215 nM
- GI50 (48 h, KMS11-Luc (MM), read-out: GI50): 0.29 nM
- GI50 (48 h, KMS11-Luc (MM), read-out: Log(GI50) (converted)): 0.29 nM
- GI50 (48 h, KMS12 (MM), read-out: GI50): 0.29 nM
- GI50 (48 h, KMS12 (MM), read-out: Log(GI50) (converted)): 0.29 nM
- GI50 (48 h, KMS18-Luc (MM), read-out: GI50): 0.52 nM
- GI50 (48 h, KMS18-Luc (MM), read-out: Log(GI50) (converted)): 0.518 nM
- GI50 (48 h, Karpas-299-Luc (NHL), read-out: GI50): 20.2 nM
- GI50 (48 h, Karpas-299-Luc (NHL), read-out: Log(GI50) (converted)): 20.2 nM
- GI50 (48 h, LP1 (MM), read-out: GI50): 0.21 nM
- GI50 (48 h, LP1 (MM), read-out: Log(GI50) (converted)): 0.205 nM
- GI50 (48 h, MHH-CALL-2 (ALL), read-out: GI50): 0.32 nM
- GI50 (48 h, MHH-CALL-2 (ALL), read-out: Log(GI50) (converted)): 0.315 nM
- GI50 (48 h, MHH-CALL-3 (ALL), read-out: GI50): 0.2 nM
- GI50 (48 h, MHH-CALL-3 (ALL), read-out: Log(GI50) (converted)): 0.2 nM
- GI50 (48 h, MM1-S-Luc (MM), read-out: GI50): 0.23 nM
- GI50 (48 h, MM1-S-Luc (MM), read-out: Log(GI50) (converted)): 0.23 nM
- GI50 (48 h, MOLM13-Luc (AML), read-out: GI50): 0.23 nM
- GI50 (48 h, MOLM13-Luc (AML), read-out: Log(GI50) (converted)): 0.226 nM
- GI50 (48 h, MUTZ-5 (ALL), read-out: GI50): 10 nM
- GI50 (48 h, MUTZ-5 (ALL), read-out: Log(GI50) (converted)): 10 nM
- GI50 (48 h, MV4, 11Luc (AML), read-out: GI50): 0.11 nM
- GI50 (48 h, MV4, 11Luc (AML), read-out: Log(GI50) (converted)): 0.105 nM
- GI50 (48 h, Mean across the entire panel, read-out: GI50): 0.43 nM
- GI50 (48 h, Mean across the entire panel, read-out: Log(GI50) (converted)): 0.431 nM
- GI50 (48 h, NALM-19 (ALL), read-out: GI50): 0.19 nM
- GI50 (48 h, NALM-19 (ALL), read-out: Log(GI50) (converted)): 0.19 nM
- GI50 (48 h, REH (ALL), read-out: GI50): 0.18 nM
- GI50 (48 h, REH (ALL), read-out: Log(GI50) (converted)): 0.18 nM
- GI50 (48 h, RL (NHL), read-out: GI50): 20 nM
- GI50 (48 h, RL (NHL), read-out: Log(GI50) (converted)): 20 nM
- GI50 (48 h, SEM-Luc (ALL), read-out: GI50): 0.15 nM
- GI50 (48 h, SEM-Luc (ALL), read-out: Log(GI50) (converted)): 0.15 nM
- GI50 (48 h, SR (NHL), read-out: GI50): 0.11 nM
- GI50 (48 h, SR (NHL), read-out: Log(GI50) (converted)): 0.11 nM
- GI50 (48 h, TANOUE (ALL), read-out: GI50): 10 nM
- GI50 (48 h, TANOUE (ALL), read-out: Log(GI50) (converted)): 10 nM
- GI50 (48 h, YT (ALL), read-out: GI50): 10 nM
- GI50 (48 h, YT (ALL), read-out: Log(GI50) (converted)): 10 nM
- GI50 (48 h, hematological panel, read-out: average log(GI50) across the entire panel (converted)): 1.72 nM
- Differential (AML-193 (AML)): 0.593
- Differential (CCRF-CEM (ALL)): 0.419
- Differential (CCRF-HSB-2 (ALL)): 0.367
- Differential (DEL (NHL)): 0.182
- Differential (DOHH2 (NHL)): 0.263
- Differential (H929 (MM)): 0.109
- Differential (H929-Luc (MM)): −0.593
- Differential (HDLM-2 (HL)): 0.555
- Differential (HEL92 (AML)): −0.056
- Differential (HH (NHL)): 0.301
- Differential (HL60 (AML)): 0.416
- Differential (HL60-Luc (AML)): −0.072
- GI50 (HL-60-Luc, 48 h, HL60-Luc (AML), read-out: GI50): 0.51 nM
- GI50 (HL-60-Luc, 48 h, HL60-Luc (AML), read-out: Log(GI50) (converted)): 0.508 nM
- GI50 (Homo sapiens, CCRF-CEM, 48 h, CCRF-CEM (ALL), read-out: GI50): 0.16 nM
- GI50 (Homo sapiens, CCRF-CEM, 48 h, CCRF-CEM (ALL), read-out: Log(GI50) (converted)): 0.164 nM
- GI50 (Homo sapiens, CCRF-HSB-2, 48 h, CCRF-HSB-2 (ALL), read-out: GI50): 0.19 nM
- GI50 (Homo sapiens, CCRF-HSB-2, 48 h, CCRF-HSB-2 (ALL), read-out: Log(GI50) (converted)): 0.185 nM
- GI50 (Homo sapiens, DOHH-2, 48 h, DOHH2 (NHL), read-out: GI50): 0.24 nM
- GI50 (Homo sapiens, DOHH-2, 48 h, DOHH2 (NHL), read-out: Log(GI50) (converted)): 0.235 nM
- GI50 (Homo sapiens, HDLM-2, 48 h, HDLM-2 (HL), read-out: GI50): 0.12 nM
- GI50 (Homo sapiens, HDLM-2, 48 h, HDLM-2 (HL), read-out: Log(GI50) (converted)): 0.12 nM
- GI50 (Homo sapiens, HL-60, 48 h, HL60 (AML), read-out: GI50): 0.17 nM
- GI50 (Homo sapiens, HL-60, 48 h, HL60 (AML), read-out: Log(GI50) (converted)): 0.165 nM
- GI50 (Homo sapiens, HuT78, 48 h, HuT78 (NHL), read-out: GI50): 0.28 nM
- GI50 (Homo sapiens, HuT78, 48 h, HuT78 (NHL), read-out: Log(GI50) (converted)): 0.275 nM
- GI50 (Homo sapiens, K562, 48 h, K562 (CML), read-out: GI50): 0.21 nM
- GI50 (Homo sapiens, K562, 48 h, K562 (CML), read-out: Log(GI50) (converted)): 0.209 nM
- GI50 (Homo sapiens, KARPAS-299, 48 h, Karpas-299 (NHL), read-out: GI50): 0.2 nM
- GI50 (Homo sapiens, KARPAS-299, 48 h, Karpas-299 (NHL), read-out: Log(GI50) (converted)): 0.2 nM
- GI50 (Homo sapiens, KARPAS-422, 48 h, Karpas-422 (NHL), read-out: GI50): 5.14 nM
- GI50 (Homo sapiens, KARPAS-422, 48 h, Karpas-422 (NHL), read-out: Log(GI50) (converted)): 5.14 nM
- GI50 (Homo sapiens, KM-H2, 48 h, KM-H2 (HL), read-out: GI50): 0.23 nM
- GI50 (Homo sapiens, KM-H2, 48 h, KM-H2 (HL), read-out: Log(GI50) (converted)): 0.233 nM
- GI50 (Homo sapiens, KMS-11, 48 h, KMS11 (MM), read-out: GI50): 0.48 nM
- GI50 (Homo sapiens, KMS-11, 48 h, KMS11 (MM), read-out: Log(GI50) (converted)): 0.483 nM
- GI50 (Homo sapiens, Kasumi 1, 48 h, Kasumi-1 (AML), read-out: GI50): 0.44 nM
- GI50 (Homo sapiens, Kasumi 1, 48 h, Kasumi-1 (AML), read-out: Log(GI50) (converted)): 0.44 nM
- GI50 (Homo sapiens, L-363, 48 h, L363 (MM), read-out: GI50): 0.13 nM
- GI50 (Homo sapiens, L-363, 48 h, L363 (MM), read-out: Log(GI50) (converted)): 0.13 nM
- GI50 (Homo sapiens, L-428, 48 h, L428 (HL), read-out: GI50): 20 nM
- GI50 (Homo sapiens, L-428, 48 h, L428 (HL), read-out: Log(GI50) (converted)): 20 nM
